System: oral mucositis induced by cis-platin 5 mg/kg and radiation 35 Gy (left cheek pouch)
Test: Oral mucositis induced by a combination of cisplatin and acute radiation in hamsters, mucositis scoring (Example 4, SCI-04)
Format: in vivo, Syrian Golden Hamsters
Set-up: key: 0: Pouch completely healthy. No erythema or vasodilation.; 1: Light to severe erythema and vasodilation. No erosion of mucosa.; 2: Severe erythema and vasodilation. Erosion of superficial aspects of mucosa leaving denuded areas, but no frank ulceration. Decreased stippling of mucosa.; 3: Formation of off-white ulcers in one or more places. Ulcers may have a yellow/gray due to pseudomembrane. Cumulative size of ulcers should equal about ¼ of the pouch. Severe erythema and vasodilation.; 4: Cumulative seize of ulcers should equal about ½ of the pouch. Loss of pliability. Severe erythema and vasodilation.; 5: Virtually all of pouch is ulcerated. Loss of pliability (pouch can only partially be extracted from mouth)
Conditions: Group 2 (SCV-07 10 μg/kg, day -1 to day 20), individual animal scores, two scores per animal
Procedure: Forty Golden Syrian hamsters were prospectively randomized into four equally sized groups. Mucositis was induced on the left cheek pouch mucosa of golden Syrian hamsters by a single dose of cis-platin at 5 mg/kg given on day −1, and a single dose of radiation administered on day 0 at a dose of 35Gy. Beginning on day −1 and continuing once daily until day 20, SCV-07 was given by sub-cutaneous injection at doses of 10 μg/kg, 100 μg/kg or 1 mg/kg in a volume of 100 μL. Animals' activity and weight were evaluated daily. Beginning on day 6 and continuing on alternate days for the duration of the study, oral mucositis was evaluated using a standard scoring six point scale. The number of days of ulcerative mucositis was evaluated using a Chi-squared test of scores of ≧3 throughout the study, and the individual daily group scores were assessed with a Rank Sum Test.
The chemo-radiation model of oral mucositis in hamsters, developed by the Principal Investigator, has proven to be an accurate, efficient and cost-effective technique to provide a preliminary evaluation of anti-mucositis compounds. In this model, hamsters received a single dose of cis-platin at 5 mg/kg on day −1, followed by a single dose of radiation of 35 Gy to the left cheek pouch on day 0, rather than the single dose of 40 Gy on day 0 that is used in acute radiation studies. The course of mucositis in this model is very similar to the acute radiation model and results in peak mucositis scores approximately 16-18 days following radiation.
Hamsters received a single dose of cis-platin at 5 mg/kg on day −1 by intra-peritoneal injection, followed by a single dose of radiation of 35 Gy to the left cheek pouch on day 0. This was accomplished by anesthetizing the animals and everting the left buccal pouch, while protecting the rest of the animal's bodies with a lead shield. Test materials were given by sub-cutaneous injection once daily as detailed in Table 13. Mucositis was evaluated clinically starting on day 6, and continuing on alternate days until day 28. Test articles were given as from day −1 to day 20.
The grade of mucositis was scored, beginning day 6, and for every second day thereafter, through and including day 28. The effect on mucositis of each drug treatment compared to placebo was assessed according to the following parameters:
On each evaluation day, the number of animals with a blinded mucositis score of ≧3 in each drug treatment group was compared to the control group. Differences were compared on a cumulative basis and statistical significance was determined by chi-square analysis. Efficacy, in this analysis, is defined by a significant reduction in the number of days that a group of animals had ulcerations (scores 3) when compared to the control group.
For each evaluation day the scores of the control group were compared to those of the treated groups using non-parametric rank sum analysis. Treatment success was considered as a statistically significant lowering of scores in the treated group on 2 or more days from day 6 to day 28.
Forty (40) male Syrian Golden Hamsters were given an intraperitoneal injection of 5 mg/kg Cisplatin on day −1. On day 0 all animals were given an acute radiation dose of 35 Gy directed to their left buccal cheek pouch. This was accomplished by anesthetizing the animals and everting the left buccal pouch, while protecting the rest of the animals with a lead shield. Test materials were given by subcutaneous injection once daily as detailed in Table 13. Mucositis was evaluated clinically starting on Day 6, and continued on alternate days until day 28.
In this study, mucositis was induced with a combination of Cis-platin and radiation. Cis-platin was given as a single injection (IP) of 5 mg/kg on day −1. Radiation was given as a single focal dose of 35 Gy on day 0. Radiation was generated with a Philips 160 kVp (kilovolt potential) (18.75-ma) X-ray source at a focal distance of 30 cm, with a 3.0 mm hardened Al filtration system. […]

N[C@H](CCC(=O)N[C@@H](Cc1c[nH]c2ccccc12)C(=O)O)C(=O)O [SCV-07, γ-D-glutamyl-L-tryptophan]
2: Mucositis score, day 10 (day 10) | Mucositis score, day 12 (day 12) | Mucositis score, day 14 (day 14) | Mucositis score, day 16 (day 16) | Mucositis score, day 18 (day 18) | Mucositis score, day 20 (day 20) | Mucositis score, day 22 (day 22) | Mucositis score, day 24 (day 24) | Mucositis score, day 26 (day 26) | Mucositis score, day 28 (day 28)

From US7906486B2, “Method of treating or preventing tissue deterioration, injury or damage due to disease of mucosa” (SciClone Pharmaceuticals, Inc., priority 2007, dated 2011)
